Experimental findings from paper PMC7504215, “Copper(II) Complexes with Mixed Heterocycle Ligands as Promising Antibacterial and Antitumor Species” (Molecules, 2020) are described below.

The test system of one series is λ-DNA/EB adduct. The series can be described thus: Quenching of fluorescence of λ-DNA/ethidium bromide adduct. Format: binding, bacteriophage lambda. To be noted: λ-DNA pre-treated with EB, increments of complex, pH 8. How it is done: To determine whether compounds have the capacity to interact with DNA, 48,500 base-pairs of genomic DNA from bacteriophage lambda (λ-DNA, Promega. Madison USA) was used. A stock solution of 10 µM λ-DNA (base-pair concentration) was prepared in 10 mM Tris/HCl buffer containing 1 mM NaCl, pH 8.
The binding of compounds to λ-DNA was assayed by monitoring the quenching of fluorescence emitted by λ-DNA/ethidium bromide (EB) adduct (λexcit = 510, maximum emission at λem = 601). The λ-DNA solution was added to the EB solution, prepared in the same buffer, then increasing concentrations of compounds were added to EB-DNA [2, 48]. The fluorescence spectra were recorded in the range of 550–750 nm using a Thermo Fischer Scientific Varioskan Flash spectral scanning multimode reader (Vantaa, Finland). The spectra were recorded in suitable plates using 5 nm excitation and emission slits for all measurements.

The subject of series [1] is P. aeruginosa 9027. The series can be described thus: MBEC assay, micro-titer method (biofilm). The series is classed as cell-based, Pseudomonas aeruginosa. As for the experimental part: (§1) The antibacterial assays were performed on Gram-negative (Escherichia coli ATCC 25922, E. coli 5, Pseudomonas aeruginosa ATCC 27853, P. aeruginosa ATCC 9027) and Gram-positive (Staphylococcus aureus ATCC 25923, S. aureus ATCC 6538, MRSA (Meticillin-resistant S. aureus) 388, ATCC, American Type Culture Collection) bacterial strains. Microbial suspensions (1.5 × 10^8 CFU/mL; colony forming units (CFU)) corresponding to 0.5 McFarland density obtained from 15 to 18-h bacterial cultures developed on solid media were used. The antimicrobial activity was tested on Mueller–Hinton agar medium.
(§2) The assessment of the complexes’ influence on the microbial ability to colonize an inert substratum with the establishment of the minimal biofilm eradication concentration (MBEC) was performed by the micro-titer method, following previously described protocols. The absorbance at 490 nm was measured with an Apollo LB 911ELISA (Berthold Technologies GmbH & Co. KG, Waltham, MA, USA) reader. All experiments were performed in triplicates.

The subject of series [2] is P. aeruginosa 27853. The series can be described thus: MBEC assay, micro-titer method (biofilm). Format: cell-based, Pseudomonas aeruginosa. As for the experimental part:
as §1, §2

A further series has as its system B16 cells. Nature of the series: Phalloidin staining and cell imaging (cytoskeleton, nucleus). The series is classed as cell-based, Mouse. The note with it: 24 h, 6 μg/mL. How it is done:
Cytoskeleton actin filaments of BJ and B16 cells were stained with phalloidin-FITC (Sigma-Aldrich, USA) according to the manufacturer’s protocol. Briefly, cells were washed with PBS (5 min, 3 times), fixed for 5 min with 3% paraformaldehyde, washed three times with PBS, permeabilized with 0.1% Triton X-100 in PBS for 15 min, washed three times with PBS, stained with 20 μg mL^−1 phalloidin-FITC at room temperature for 1 h and washed again three times with PBS. Cell nucleus was stained with 8 μM of Hoechst 33342 solution for 10 min, washed three times with PBS and finally, mounted and sealed on glass slides with FluorSave™ Reagent (Merck Millipore, Germany). The fluorescence images were acquired using an Andor DSD2 Confocal Unit (Andor, Ireland), mounted on an epifluorescence microscope, Olympus BX-51 (Olympus, Germany), equipped with a 40x and 100x objective and an appropriate DAPI/Hoechst filter cube (excitation filter 390/40 m, dichroic mirror 405 nm and emission filter 452/45 nm) and GFP/FITC filter cube (excitation filter 466/40 nm, dichroic mirror 488 nm and emission filter 525/54 nm).

For series [3], the system named is human red blood cells (hRBCs). The series can be described thus: Hemolytic activity (adapted ASTM F 756-00). Format: cell-based. The note with it: 25 µg/mL, 4 h at 37 °C, threshold 5% (ASTM F 756-00). How it is done:
The hemolytic activity of the compounds was determined using an adapted protocol of ASTM F 756–00 standard based on hemoglobin release from human red blood cells (hRBCs) resulting after cell lyses. Briefly, the blood samples were collected from healthy volunteers, diluted to a concentration of hemoglobin ~10 mg/mL with phosphate buffer saline (PBS) and then incubated with various concentrations of compounds for 4 h at 37 °C. After 4 h, the cells were centrifuged, the supernatant was collected, transferred into 96-well tissue culture plates and mixed with Drabkin reagent, which converts hemoglobin to cyanmethemoglobin (absorption peak at 540 nm). After 15 min, the absorbance of the samples was read at 570 nm using a plate reader. The obtained data was background corrected and used to calculate the hemolytic index as percentage of the hemoglobin released after the treatment with the tested compounds, relative to control samples. The hRBCs in PBS and distilled water were used as negative and positive controls.

Series [4] concerns P. aeruginosa 9027. Nature of the series: MIC assay, liquid medium microdilution (planktonic growth). Format: cell-based, Pseudomonas aeruginosa. The note with it: P. aeruginosa 9027 (multi-drug-resistant), 24 h at 37 °C. As for the experimental part: as §1
(§3) The quantitative assay of the antimicrobial activity was performed by the liquid medium microdilution method, in 96-well multi-well plates, to establish the minimal inhibitory concentration (MIC). For this purpose, serial two-fold dilutions of the compounds ranging between 1.000 and 1.95 μg/mL were performed in a 200 μL volume of broth and each well was seeded with 50 μL microbial inoculums. Sterility control (wells containing only culture medium) and culture controls (wells containing culture medium seeded with the microbial inoculum) were used. The influence of the DMSO solvent was also quantified in a series of wells containing DMSO, diluted accordingly with the dilution scheme used for the complexes. The plates were incubated for 24 h at 37 °C, and MIC values were considered as the lowest concentration of the tested compound that inhibited the visible growth of the microbial overnight cultures.

Series [5] has as its system P. aeruginosa 27853. The series is described as above. The series is classed as cell-based, Pseudomonas aeruginosa. The note with it: P. aeruginosa 27853, 24 h at 37 °C. As for the experimental part:
as §1, §3

The test system of a further series is E. coli 25922. Described as above. Format: cell-based, Escherichia coli. To be noted: E. coli 25922, 24 h at 37 °C. How it is done:
as §1, §3

The test system of another series is E. coli 5 ESBL. The series is described as above. The series is classed as cell-based, Escherichia coli. To be noted: E. coli 5 ESBL, 24 h at 37 °C. How it is done: as §1, §3

Regarding `Cc1cc(-c2ccccc2)nc2ncnn12.[Cu+2].[O-][Cl+3]([O-])([O-])[O-].[O-][Cl+3]([O-])([O-])[O-].c1cnc2c(c1)ccc1cccnc12.c1cnc2c(c1)ccc1cccnc12` [(2), [Cu(phen)2(pmtp)](ClO4)2], the “Fluorescence of λ-DNA/EB adduct on adding complex” value in the series with λ-DNA/EB adduct is listed as “the fluorescence intensity decreased”. Further, the MBEC value with P. aeruginosa 9027 [1] stood at 0.01 mM; in the series with P. aeruginosa 27853 [2] it was 0.09 mM. Besides, the “Cell morphology (cytoskeleton and nucleus)” value in the series on B16 cells is given as “affects the cell morphology”. In [3], this compound yielded a Hemolysis of 0.77 ± 0.14%. The MIC in the series on P. aeruginosa 9027 [4] is 90 µM; in the series on P. aeruginosa 27853 [5], 90 µM; in the series with E. coli 25922, 20 µM; in the series with E. coli 5 ESBL, 50 µM.

With `Cc1cc(-c2ccccc2)nc2ncnn12.[Cu+2].[O-][Cl+3]([O-])([O-])[O-].[O-][Cl+3]([O-])([O-])[O-].c1ccc(-c2ccccn2)nc1.c1ccc(-c2ccccn2)nc1` [(1), [Cu(bpy)2(pmtp)](ClO4)2], the “Fluorescence of λ-DNA/EB adduct on adding complex” value in the series with λ-DNA/EB adduct is “the fluorescence intensity decreased”. Also, the MBEC value in the series with P. aeruginosa 9027 [1] is recorded as 0.20 mM; with P. aeruginosa 27853 [2], 0.40 mM. Besides, the “Cell morphology (cytoskeleton and nucleus)” value in the series on B16 cells was “does not alter the morphology of the cells”. Besides, in series [3], the Hemolysis came out at 0.59 ± 0.18%. Moreover, the MIC with P. aeruginosa 9027 [4] turned out to be 400 µM; in the series with P. aeruginosa 27853 [5], 400 µM; with E. coli 25922, 200 µM; in the series with E. coli 5 ESBL, 400 µM.

As usually defined, the MIC is the lowest concentration that inhibits growth of the organism. Low readings indicate a more susceptible organism, high ones a less susceptible organism.
